Laboratory results taken from patent publication US20170190671A1, “BIS(ARYL)CATECHOL DERIVATIVES AS HERBICIDES” (E I DU PONT DE NEMOURS AND COMPANY, priority 2014, published 2017).

What was measured:
Experiment in all cases: Test E preemergence
Format in all cases: in vivo
Settings in all cases: scale 0 to 100
[1] = test system: palmer pigweed (Amaranthus palmeri)
Summary of the method: (§1)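 Visual ratings from 0 = no effect to 100 = complete control, scored against untreated controls after 14 to 21 days in the greenhouse. Compounds, in a non-phytotoxic solvent mix with surfactant, went onto silt loam soil right after sowing (preemergence) or onto 2–18 cm plants at the 1- to 4-leaf stage (postemergence).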

soybean (Glycine max) = test system: soybean (Glycine max)
Summary of the method: as §1

[2] = test system: field bindweed (Convolvulus arvensis)
Summary of the method: as §1

corn (Zea mays) = test system: corn (Zea mays)
Summary of the method: as §1

[3] = test system: large (Lg) crabgrass (Digitaria sanguinalis)
Summary of the method: as §1

[4] = test system: barnyardgrass (Echinochloa crus-galli)
Summary of the method: as §1

[5] = test system: dayflower (Virginia (VA) dayflower, Commelina virginica)
Summary of the method: as §1

[6] = test system: morningglory (Ipomoea coccinea)
Summary of the method: as §1

[7] = test system: Brazilian crabgrass (Digitaria horizontalis)
Summary of the method: as §1

[8] = test system: velvetleaf (Abutilon theophrasti)
Summary of the method: as §1

[9] = test system: Surinam grass (Brachiaria decumbens)
Summary of the method: as §1

kochia (Kochia scoparia) = test system: kochia (Kochia scoparia)
Summary of the method: as §1

[10] = test system: sandbur (southern sandbur, Cenchrus echinatus)
Summary of the method: as §1

[11] = test system: arrowleaf sida (Sida rhombifolia)
Summary of the method: as §1

[12] = test system: green foxtail (Setaria viridis)
Summary of the method: as §1

[13] = test system: hairy beggarticks (Bidens pilosa)
Summary of the method: as §1

[14] = test system: ragweed (common ragweed, Ambrosia elatior)
Summary of the method: as §1

[15] = test system: Italian ryegrass (Lolium multiflorum)
Summary of the method: as §1

[16] = test system: nightshade (eastern black nightshade, Solanum ptycanthum)
Summary of the method: as §1

[17] = test system: goosegrass (Eleusine indica)
Summary of the method: as §1

[18] = test system: waterhemp (common waterhemp, Amaranthus rudis)
Summary of the method: as §1

Fc1ccc(F)c(Oc2ncc(Cl)cn2)c1Oc1ncc(Cl)cn1 [Compound 34, 2,2′-[(3,6-difluoro-1,2-phenylene)bis(oxy)]bis[5-chloropyrimidine]]
70: Plant response rating, Pigweed, Palmer ([1]; 62 g ai/ha) | Plant response rating, Sandbur ([10]; 125 g ai/ha) | Plant response rating, Foxtail, Green ([12]; 125 g ai/ha) | Plant response rating, Beggarticks ([13]; 62 g ai/ha) | Plant response rating, Ryegrass, Italian ([15]; 125 g ai/ha)
80: Plant response rating, Arrowleaf Sida ([11]; 31 g ai/ha) | Plant response rating, Nightshade ([16]; 62 g ai/ha) | Plant response rating, Goosegrass ([17]; 125 g ai/ha)
30: Plant response rating, Dayflower, VA ([5]; 31 g ai/ha) | Plant response rating, Velvetleaf ([8]; 16 g ai/ha)
10: Plant response rating, Soybean (soybean (Glycine max); 31 g ai/ha) | Plant response rating, Surinam Grass ([9]; 125 g ai/ha) | Plant response rating, Sandbur ([10]; 62 g ai/ha) | Plant response rating, Foxtail, Green ([12]; 31 g ai/ha)
60: Plant response rating, Soybean (soybean (Glycine max); 125 g ai/ha) | Plant response rating, Barnyardgrass ([4]; 125 g ai/ha) | Plant response rating, Arrowleaf Sida ([11]; 16 g ai/ha) | Plant response rating, Beggarticks ([13]; 31 g ai/ha)
75: Plant response rating, Beggarticks ([13]; 125 g ai/ha)
95: Plant response rating, Crabgrass, Brazil ([7]; 62 g ai/ha) | Plant response rating, Kochia (kochia (Kochia scoparia); 31 g ai/ha) | Plant response rating, Nightshade ([16]; 125 g ai/ha)
65: Plant response rating, Morningglory ([6]; 125 g ai/ha) | Plant response rating, Foxtail, Green ([12]; 62 g ai/ha)
25: Plant response rating, Soybean (soybean (Glycine max); 62 g ai/ha) | Plant response rating, Crabgrass, Large ([3]; 31 g ai/ha) | Plant response rating, Ragweed ([14]; 62 g ai/ha)
5: Plant response rating, Goosegrass ([17]; 62 g ai/ha)
98: Plant response rating, Crabgrass, Large ([3]; 62 g ai/ha) | Plant response rating, Crabgrass, Large ([3]; 125 g ai/ha) | Plant response rating, Crabgrass, Brazil ([7]; 125 g ai/ha) | Plant response rating, Arrowleaf Sida ([11]; 62 g ai/ha)
20: Plant response rating, Barnyardgrass ([4]; 62 g ai/ha) | Plant response rating, Dayflower, VA ([5]; 62 g ai/ha) | Plant response rating, Morningglory ([6]; 31 g ai/ha)
0: Plant response rating, Pigweed, Palmer ([1]; 16 g ai/ha) | Plant response rating, Soybean (soybean (Glycine max); 16 g ai/ha) | Plant response rating, Field Bindweed ([2]; 16 g ai/ha) | Plant response rating, Field Bindweed ([2]; 31 g ai/ha) | Plant response rating, Field Bindweed ([2]; 62 g ai/ha) | Plant response rating, Field Bindweed ([2]; 125 g ai/ha) | Plant response rating, Corn (corn (Zea mays); 16 g ai/ha) | Plant response rating, Corn (corn (Zea mays); 31 g ai/ha) | Plant response rating, Corn (corn (Zea mays); 62 g ai/ha) | Plant response rating, Corn (corn (Zea mays); 125 g ai/ha) | Plant response rating, Crabgrass, Large ([3]; 16 g ai/ha) | Plant response rating, Barnyardgrass ([4]; 16 g ai/ha) | Plant response rating, Barnyardgrass ([4]; 31 g ai/ha) | Plant response rating, Dayflower, VA ([5]; 16 g ai/ha) | Plant response rating, Crabgrass, Brazil ([7]; 16 g ai/ha) | Plant response rating, Surinam Grass ([9]; 16 g ai/ha) | Plant response rating, Surinam Grass ([9]; 31 g ai/ha) | Plant response rating, Kochia (kochia (Kochia scoparia); 16 g ai/ha) | Plant response rating, Sandbur ([10]; 16 g ai/ha) | Plant response rating, Sandbur ([10]; 31 g ai/ha) | Plant response rating, Foxtail, Green ([12]; 16 g ai/ha) | Plant response rating, Ragweed ([14]; 16 g ai/ha) | Plant response rating, Ragweed ([14]; 31 g ai/ha) | Plant response rating, Ryegrass, Italian ([15]; 16 g ai/ha) | Plant response rating, Ryegrass, Italian ([15]; 31 g ai/ha) | Plant response rating, Goosegrass ([17]; 16 g ai/ha) | Plant response rating, Goosegrass ([17]; 31 g ai/ha)
50: Plant response rating, Pigweed, Palmer ([1]; 31 g ai/ha) | Plant response rating, Morningglory ([6]; 62 g ai/ha) | Plant response rating, Beggarticks ([13]; 16 g ai/ha) | Plant response rating, Nightshade ([16]; 16 g ai/ha) | Plant response rating, Nightshade ([16]; 31 g ai/ha)
90: Plant response rating, Dayflower, VA ([5]; 125 g ai/ha)
100: Plant response rating, Pigweed, Palmer ([1]; 125 g ai/ha) | Plant response rating, Velvetleaf ([8]; 31 g ai/ha) | Plant response rating, Velvetleaf ([8]; 62 g ai/ha) | Plant response rating, Velvetleaf ([8]; 125 g ai/ha) | Plant response rating, Kochia (kochia (Kochia scoparia); 62 g ai/ha) | Plant response rating, Kochia (kochia (Kochia scoparia); 125 g ai/ha) | Plant response rating, Arrowleaf Sida ([11]; 125 g ai/ha) | Plant response rating, Waterhemp ([18]; 16 g ai/ha) | Plant response rating, Waterhemp ([18]; 31 g ai/ha) | Plant response rating, Waterhemp ([18]; 62 g ai/ha) | Plant response rating, Waterhemp ([18]; 125 g ai/ha)
35: Plant response rating, Crabgrass, Brazil ([7]; 31 g ai/ha) | Plant response rating, Ragweed ([14]; 125 g ai/ha) | Plant response rating, Ryegrass, Italian ([15]; 62 g ai/ha)
